Test results from patent US20260183320A1, “METHOD FOR TREATING CANCER BY COMBINING ALKYLATING AGENT PRODRUG AND CELL CYCLE INHIBITOR” (ASCENTAWITS PHARMACEUTICALS, LTD., priority 2022, published 2026).

Assays:
[1] = tested on: H460 cell line; assay: H460 cell line proliferation inhibition assay under normoxia and hypoxia (CTG); format: cell-based; details: for IC50: Homo sapiens, NCI-H460, H460
Method: (§1) 24-well plates with glass inserts were used in assays under hypoxia, and ordinary plastic 24-well plates were used in assays under normoxia. • 2) The cells were incubated overnight at 37° C. in an incubator with 5% CO2. • 3) Treatment with Compounds
(§2) A hypoxia workstation was tuned to create a hypoxic environment, and an oxygen indicator was used to confirm the hypoxia in the workstation.
(§3) After cell plating for 24 hours, the 24-well plates with glass inserts were transferred into the hypoxia workstation.
(§4) The 24-well plates were placed on a shaker, uncovered and shaken to allow air exchange for 5 min.
(§5) For each well for combination therapy, 5 or 10 μL of medium was removed and 5 μL of adavosertib (to a final concentration of 1 or 10 μM) or ceralasertib (to a final concentration of 200 or 2000 μM), followed by incubation for 2 h.
(§6) To each well, 5 or 10 μL of the compound was added at a 100× concentration. Three replicate wells were set up for each group.
(§7) Gentle shaking was carried out until homogeneous mixing of the compound, and the 24-well plates were incubated for 3 hours in the hypoxia workstation with their lids being half opened.
(§8) 24 hours after plating of the cells, for each well for combination therapy, 5 or 10 μL of medium was removed and 5 μL of adavosertib (to a final concentration of 1 or 10 μM) or ceralasertib (to a final concentration of 200 or 2000 μM), followed by incubation for 2 h.
In the H460 cell proliferation inhibition assays, adavosertib was added to final concentrations of 3 μM and 30 μM, and ceralasertib was added to final concentrations of 2 μM, 20 µM and 1000 μM.

[2] = tested on: HT29 cell line; assay: HT29 cell line proliferation inhibition assay under normoxia and hypoxia (CTG); format: cell-based; details: for additive cytotoxic effect in combination therapy with adavosertib / additive cytotoxic effect in combination therapy with ceralasertib: HT29 (p53-deficient); for Ratio single/combo under Hypoxia / Ratio single/combo under Normoxia / Normoxia/Hypoxia Ratio: HT29; for IC50: Homo sapiens, HT-29, HT29
Method: as §1, §2, §3, §4, §5, §6, §7, §8

[3] = H460 (wild-type p53), normoxia or hypoxia

Cn1c(COP(=O)(NCCBr)NCCBr)cnc1[N+](=O)[O-] [TH-302]
additive cytotoxic effect in combination therapy with adavosertib [1, 3]: did not exhibit any significant additive cytotoxic effects
additive cytotoxic effect in combination therapy with ceralasertib [1, 3]: did not exhibit any significant additive cytotoxic effects
Ratio combo/single under Normoxia ([1]; H460, 2 μM ceralasertib): 1.07
Ratio single/combo under Hypoxia ([1]; H460, 2 μM ceralasertib): 1.71
Ratio single/combo under Hypoxia ([1]; H460, 3 μM adavosertib): 1.56
Ratio single/combo under Normoxia ([1]; H460, 3 μM adavosertib): 1.12
Ratio single/combo under Hypoxia ([1]; H460, 20 μM ceralasertib): 1.49
Ratio single/combo under Normoxia ([1]; H460, 20 μM ceralasertib): 1.05
Ratio single/combo under Hypoxia ([1]; H460, 30 μM adavosertib): 2.14
Ratio single/combo under Hypoxia ([1]; H460, 1000 μM ceralasertib): >6.17
Ratio single/combo under Normoxia ([1]; H460, 1000 μM ceralasertib): 1.36
Normoxia/Hypoxia Ratio ([1]; H460, monotherapy, Table 17): 824.83
Normoxia/Hypoxia Ratio ([1]; H460, monotherapy, Table 19): 1737.84
Normoxia/Hypoxia Ratio ([1]; H460, with 2 μM ceralasertib): 3190.74
Normoxia/Hypoxia Ratio ([1]; H460, with 3 μM adavosertib): 1448.06
Normoxia/Hypoxia Ratio ([1]; H460, with 20 μM ceralasertib): 2464.52
Normoxia/Hypoxia Ratio ([1]; H460, with 30 μM adavosertib): 1518.50
Normoxia/Hypoxia Ratio ([1]; H460, with 1000 μM ceralasertib): >7853.33
IC50 ([1]; monotherapy, hypoxia, adavosertib series (Table 17)): 0.0255 µM
IC50 ([1]; monotherapy, hypoxia, ceralasertib series (Table 19)): 0.0185 µM
IC50 ([1]; monotherapy, normoxia, adavosertib series (Table 17)): 21 µM
IC50 ([1]; monotherapy, normoxia, ceralasertib series (Table 19)): 32.1 µM
IC50 ([1]; with 2 μM ceralasertib, hypoxia): 0.0108 µM
IC50 ([1]; with 2 μM ceralasertib, normoxia): 34.5 µM
IC50 ([1]; with 3 μM adavosertib, hypoxia): 0.0163 µM
IC50 ([1]; with 3 μM adavosertib, normoxia): 23.6 µM
IC50 ([1]; with 20 μM ceralasertib, hypoxia): 0.0124 µM
IC50 ([1]; with 20 μM ceralasertib, normoxia): 30.6 µM
IC50 ([1]; with 30 μM adavosertib, hypoxia): 0.0119 µM
IC50 ([1]; with 30 μM adavosertib, normoxia): 18.1 µM
IC50 ([1]; with 1000 μM ceralasertib, hypoxia): < 0.003 µM
IC50 ([1]; with 1000 μM ceralasertib, normoxia): 23.6 µM
additive cytotoxic effect in combination therapy with adavosertib ([2]; adavosertib at a high concentration, hypoxia): significant additive cytotoxic effect
additive cytotoxic effect in combination therapy with ceralasertib ([2]; ceralasertib at a high concentration, hypoxia): significant additive cytotoxic effect
additive cytotoxic effect in combination therapy with adavosertib ([2]; normoxia): did not exhibit any significant additive cytotoxic effects
additive cytotoxic effect in combination therapy with ceralasertib ([2]; normoxia): did not exhibit any significant additive cytotoxic effects
Ratio single/combo under Hypoxia ([2]; 1 μM adavosertib): 2.49
Ratio single/combo under Normoxia ([2]; 1 μM adavosertib): 2.41
Ratio single/combo under Hypoxia ([2]; 10 μM adavosertib): 8.68
Ratio single/combo under Normoxia ([2]; 10 μM adavosertib): 6.57
Ratio single/combo under Hypoxia ([2]; 200 μM ceralasertib): 7.11
Ratio single/combo under Normoxia ([2]; 200 μM ceralasertib): 1.24
Ratio single/combo under Hypoxia ([2]; 2000 μM ceralasertib): >44.66
Ratio single/combo under Normoxia ([2]; 2000 μM ceralasertib): 2.77
Normoxia/Hypoxia Ratio ([2]; monotherapy, Table 16): 74.35
Normoxia/Hypoxia Ratio ([2]; monotherapy, Table 18): 51.62
Normoxia/Hypoxia Ratio ([2]; with 1 μM adavosertib): 76.80
Normoxia/Hypoxia Ratio ([2]; with 10 μM adavosertib): 98.18
Normoxia/Hypoxia Ratio ([2]; with 200 μM ceralasertib): 294.78
Normoxia/Hypoxia Ratio ([2]; with 2000 μM ceralasertib): >821.56
IC50 ([2]; monotherapy, hypoxia, adavosertib series (Table 16)): 23.4 µM
IC50 ([2]; monotherapy, hypoxia, ceralasertib series (Table 18)): 14.3 µM
IC50 ([2]; monotherapy, normoxia, adavosertib series (Table 16)): ~1740 µM
IC50 ([2]; monotherapy, normoxia, ceralasertib series (Table 18)): 738 µM
IC50 ([2]; with 1 μM adavosertib, hypoxia): 9.38 µM
IC50 ([2]; with 1 μM adavosertib, normoxia): 720 µM
IC50 ([2]; with 10 μM adavosertib, hypoxia): 2.69 µM
IC50 ([2]; with 10 μM adavosertib, normoxia): 264 µM
IC50 ([2]; with 200 μM ceralasertib, hypoxia): 2.01 µM
IC50 ([2]; with 200 μM ceralasertib, normoxia): 592 µM
IC50 ([2]; with 2000 μM ceralasertib, hypoxia): < 0.32 µM
IC50 ([2]; with 2000 μM ceralasertib, normoxia): 266 µM
